Data from patent US20170151240A1, “F10 Inhibits Growth of PC3 Xenografts and Enhances the Effects of Radiation Therapy” (WAKE FOREST UNIVERSITY, priority 2014, published 2017).

How the values were obtained:
PC3 cells = assay: Clonogenic survival assay; format: cell-based, human; settings: 72 h treatment; for decrease of colony formation relative to control: 10 μM
Excerpt: (§1) Other anti-angiogenic/anti-tumor agents that can be used in conjunction with the compounds, compositions, methods and combination therapy of the present invention include: SD-7784 (Pfizer, USA); cilengitide. […]

[1] = once daily, three times per week; higher doses lethal; cited from earlier work
[2] = biological target: T1, thymidylate synthase (TS) (Homo sapiens, UniProt P04818); assay: TS catalytic activity assay in treated PC3 cells; format: cell-based; settings: 5-FU 10^−6 M
T1 construct: endogenous in cells; host or cells: PC3 (human prostate cancer cell line, ATCC)
Excerpt: as §1

T1 sequence (P04818 2-313 limits assumed): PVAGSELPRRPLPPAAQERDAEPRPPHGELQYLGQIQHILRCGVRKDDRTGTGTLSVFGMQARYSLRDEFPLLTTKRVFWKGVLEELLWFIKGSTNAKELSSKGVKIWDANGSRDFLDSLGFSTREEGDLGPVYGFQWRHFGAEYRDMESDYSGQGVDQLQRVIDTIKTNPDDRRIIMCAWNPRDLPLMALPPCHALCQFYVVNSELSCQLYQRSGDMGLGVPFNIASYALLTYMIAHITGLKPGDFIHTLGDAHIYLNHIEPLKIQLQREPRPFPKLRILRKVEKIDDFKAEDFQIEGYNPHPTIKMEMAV

Compound: O=c1[nH]cc(F)c(=O)[nH]1 [5-FU, 5-fluorouracil]
- PC3 cell colony formation (PC3 cells; 1 μM): no effect
- decrease of colony formation relative to control (PC3 cells): < 50%
- decrease of colony formation relative to control (PC3 cells; listed as 5FU): less than 50%
- maximum tolerated dose [1]: 45 mg/kg/dose
- TS activity relative to control ([2]; 8 and 16 h): increased
- TS activity ([2]; 48 h timepoint): ~50 % control
